22 compounds from US11760754B2, “Heterocyclic mitochondrial activity inhibitors and uses thereof” (UNIVERSITÉ DE MONTRÉAL, priority 2017, dated 2023) can be followed below.

Each structure is given as a SMILES string. Where only a bound is given, the exact number is not on record here.

Assay [1] relates to OCI-AML3 cells. The experiment in a line: OCI-AML3 cell growth inhibition, dose-response viability assay (CellTiterGlo). It is filed as cell-based. Particulars: Homo sapiens, OCI-AML-3, 144 h, read-out: AML-3 EC50. The procedure, abridged: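 OCI-AML3 cells seeded, then exposed to compound in serial dilutions from 10 μM to 0.5 nM, in duplicate or quadruplicate. Viability read by CellTiter-Glo.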
On the technique in general: Cellular ATP, detected with luciferase, serves as a proxy for viable cell number.

Assay [2] deals with MLL-AF9 cells. The experiment in a line: MLL-AF9 leukemia cell growth inhibition, dose-response viability assay (CellTiterGlo). It is filed as cell-based, murine. The note with it: Mus musculus, MLL-AF9, 120 h, read-out: MLL-AF9 EC50. The procedure, abridged: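 Murine MLL-AF9 leukemia cells (female, MSCV MLL-AF9 IRES Puro transduced) were treated with serial compound dilutions from 10 μM to 0.5 nM in duplicates or quadruplicates. Viability read by CellTiterGlo dose-response.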

What is called EC50 is the concentration that produces a half-maximal response. As for `FC(F)(F)c1ccc(/C=C/c2nc(COc3ccc(CCCn4ccnn4)cc3)co2)c(-n2nccn2)c1` [Compound 106, (E)-4-((4-(3-(1H-1,2,3-triazol-1-yl)propyl)phenoxy)methyl)-2-(2-(2H-1,2,3-triazol-2-yl)-4-(trifluoromethyl)styryl)oxazole], the concentration for a half-maximal effect (EC50) in assay [1] and in assay [2] was 1000 to 10000 nM each time.
Regarding `Fc1cc(C(F)(F)F)ccc1/C=C/c1nc(COc2ccc(CCCCc3nccs3)cc2)co1` [Compound 107, (E)-2-(2-fluoro-4-(trifluoromethyl)styryl)-4-((4-(4-(thiazol-2-yl)butyl)phenoxy)methyl) oxazole], the EC50 in assay [1] and in assay [2] was 1000 to 10000 nM throughout.
Turning to `Fc1cc(C(F)(F)F)ccc1/C=C/c1nc(COc2ccc(CCCCc3cncnc3)cc2)co1` [Compound 108, (E)-2-(2-fluoro-4-(trifluoromethyl)styryl)-4-((4-(4-(pyrimidin-5-yl)butyl)phenoxy)methyl)oxazole], the EC50 in assay [1] and in assay [2] was 1000 to 10000 nM throughout.
Consider `Fc1cc(C(F)(F)F)ccc1/C=C/c1nc(COc2ccc(OCCCn3ccnn3)cc2)co1` [Compound 109, (E)-4-((4-(3-(1H-1,2,3-triazol-1-yl)propoxy)phenoxy)methyl)-2-(2-fluoro-4-(trifluoromethyl)styryl)oxazole], for which the half-maximal effective concentration (EC50) in assay [1] was 500 to 1000 nM; in assay [2] it was 100 to 500 nM.
For `Fc1cc(C(F)(F)F)ccc1/C=C/c1nc(COc2ccc(CCCCn3ncnn3)cc2)co1` [Compound 110, (E)-4-((4-(4-(2H-tetrazol-2-yl)butyl)phenoxy)methyl)-2-(2-fluoro-4-(trifluoromethyl)styryl)oxazole] the same measures were 1000 to 10000 nM and 1000 to 10000 nM.
For `Fc1cc(C(F)(F)F)ccc1/C=C/c1nc(/C=C/c2ccc(CCCCn3ccnn3)cc2)co1` [Compound 111, 4-((E)-4-(4-(1H-1,2,3-triazol-1-yl)butyl)styryl)-2-((E)-2-fluoro-4-(trifluoromethyl)styryl) oxazole], in that order: 1000 to 10000 nM and 500 to 1000 nM.
For `Fc1ccc2oc(-c3nc(COc4ccc(CCCCn5ccnn5)cc4)co3)cc2c1` [Compound 112, 4-((4-(4-(1H-1,2,3-triazol-1-yl)butyl)phenoxy)methyl)-2-(5-fluorobenzofuran-2-yl) oxazole], in that order: 100 to 500 nM and 50 to 100 nM.
With `Fc1ccc2sc(-c3nc(COc4ccc(CCCCn5ccnn5)cc4)co3)cc2c1` [Compound 113, 4-((4-(4-(1H-1,2,3-triazol-1-yl)butyl)phenoxy)methyl)-2-(5-fluorobenzo[b]thiophen-2-yl)oxazole], the concentration giving a half-maximal response (EC50) in assay [1] was 500 to 1000 nM; in assay [2] it was 100 to 500 nM.
On to `CCOC(=O)c1cn(CCCCc2ccc(OCc3coc(/C=C/c4ccc(C(F)(F)F)cc4)n3)cc2)nn1` [Compound 114, ethyl (E)-1-(4-(4-((2-(4-(trifluoromethyl)styryl)oxazol-4-yl)methoxy)phenyl)butyl)-1H-1,2,3-triazole-4-carboxylate], for which the EC50 in assay [1] and in assay [2] was 1000 to 10000 nM each time.
On to `Fc1cc(C(F)(F)F)ccc1/C=C/c1nc(COc2ccc(COCCn3ccnn3)cc2)co1` [Compound 115, (E)-4-((4-((2-(1H-1,2,3-triazol-1-yl)ethoxy)methyl)phenoxy)methyl)-2-(2-fluoro-4-(trifluoromethyl)styryl)oxazole], for which the concentration for a half-maximal effect (EC50) is 500 to 1000 nM in assay [1] and 100 to 500 nM in assay [2].
For `Fc1cc(Cl)ccc1/C=C/c1nc(COc2ccc(CCCCn3ccnn3)cc2)co1` [Compound 116, (E)-4-((4-(4-(1H-1,2,3-triazol-1-yl)butyl)phenoxy)methyl)-2-(4-chloro-2-fluorostyryl)oxazole], in that order: 50 to 100 nM and 50 to 100 nM.
Turning to `Fc1ccc(/C=C/c2nc(COc3ccc(CCCCn4ccnn4)cc3)co2)c(Cl)c1` [Compound 117, (E)-4-((4-(4-(1H-1,2,3-triazol-1-yl)butyl)phenoxy)methyl)-2-(2-chloro-4-fluorostyryl)oxazole], the EC50 in assay [1] and in assay [2] was 100 to 500 nM in each case.
Take `Clc1ccccc1/C=C/c1nc(COc2ccc(CCCCn3ccnn3)cc2)co1` [Compound 118, (E)-4-((4-(4-(1H-1,2,3-triazol-1-yl)butyl)phenoxy)methyl)-2-(2-chlorostyryl)oxazole]: the EC50 in assay [1] and in assay [2] was 100 to 500 nM in each case.
Regarding `Clc1ccc(/C=C/c2nc(COc3ccc(CCCCn4ccnn4)cc3)co2)c(Cl)c1` [Compound 119, (E)-4-((4-(4-(1H-1,2,3-triazol-1-yl)butyl)phenoxy)methyl)-2-(2,4-dichlorostyryl)oxazole], the EC50 in assay [1] and in assay [2] was 100 to 500 nM each time.
With `Fc1cc(/C=C/c2nc(COc3ccc(CCCCn4ccnn4)cc3)co2)cc(F)c1F` [Compound 120, (E)-4-((4-(4-(1H-1,2,3-triazol-1-yl)butyl)phenoxy)methyl)-2-(3,4,5-trifluorostyryl)oxazole], the results for the EC50 in assay [1] and in assay [2] were 100 to 500 nM and less than 50 nM, respectively.
For `Fc1ccc(/C=C/c2nc(COc3ccc(CCCCn4ccnn4)cc3)co2)cc1F` [Compound 121, (E)-4-((4-(4-(1H-1,2,3-triazol-1-yl)butyl)phenoxy)methyl)-2-(3,4-difluorostyryl)oxazole] the same measures were 50 to 100 nM and 50 to 100 nM.
For `N#Cc1ccc(/C=C/c2nc(COc3ccc(CCCCn4ccnn4)cc3)co2)c(F)c1` [Compound 122, (E)-4-(2-(4-((4-(4-(1H-1,2,3-triazol-1-yl)butyl)phenoxy)methyl)oxazol-2-yl)vinyl)-3-fluorobenzonitrile] the same measures were less than 50 nM and less than 50 nM.
For `CS(=O)(=O)c1ccc(/C=C/c2nc(COc3ccc(CCCCn4ccnn4)cc3)co2)c(F)c1` [Compound 123, (E)-4-((4-(4-(1H-1,2,3-triazol-1-yl)butyl)phenoxy)methyl)-2-(2-fluoro-4-(methylsulfonyl)styryl)oxazole] the same measures were 100 to 500 nM and 100 to 500 nM.
With `Fc1cc(OC(F)(F)F)ccc1/C=C/c1nc(COc2ccc(CCCCn3ccnn3)cc2)co1` [Compound 124, (E)-4-((4-(4-(1H-1,2,3-triazol-1-yl)butyl)phenoxy)methyl)-2-(2-fluoro-4-(trifluoromethoxy)styryl)oxazole], the EC50 in assay [1] is less than 50 nM; in assay [2], 50 to 100 nM.
For `COC(=O)c1ccc(/C=C/c2nc(COc3ccc(CCCCn4ccnn4)cc3)co2)c(F)c1` [Compound 125, methyl (E)-4-(2-(4-((4-(4-(1H-1,2,3-triazol-1-yl)butyl)phenoxy)methyl)oxazol-2-yl)vinyl)-3-fluorobenzoate], in that order: 50 to 100 nM and 100 to 500 nM.
On to `O=[N+]([O-])c1cc(F)cc2cc(-c3nc(COc4ccc(CCCCn5ccnn5)cc4)co3)[nH]c12` [Compound 126, 4-((4-(4-(1H-1,2,3-triazol-1-yl)butyl)phenoxy)methyl)-2-(5-fluoro-7-nitro-1H-indol-2-yl)oxazole], for which the EC50 was 1000 to 10000 nM in assay [1] and more than 10000 nM in assay [2].
For `Fc1ccc2cc(-c3nc(COc4ccc(CCCCn5ccnn5)cc4)co3)[nH]c2c1` [Compound 127, 4-((4-(4-(H-1,2,3-triazol-1-yl)butyl)phenoxy)methyl)-2-(6-fluoro-1H-indol-2-yl)oxazole] the same measures were less than 50 nM and less than 50 nM.
